biological target: T1, Laforin (Homo sapiens, UniProt O95278); experiment: Tyrosine phosphatase selectivity (pNPP substrate), Laforin; assay type: biochemical; conditions: Laforin, pNPP substrate
T1 construct: made in house; host or cells: E. coli
T1 sequence (O95278 1-331): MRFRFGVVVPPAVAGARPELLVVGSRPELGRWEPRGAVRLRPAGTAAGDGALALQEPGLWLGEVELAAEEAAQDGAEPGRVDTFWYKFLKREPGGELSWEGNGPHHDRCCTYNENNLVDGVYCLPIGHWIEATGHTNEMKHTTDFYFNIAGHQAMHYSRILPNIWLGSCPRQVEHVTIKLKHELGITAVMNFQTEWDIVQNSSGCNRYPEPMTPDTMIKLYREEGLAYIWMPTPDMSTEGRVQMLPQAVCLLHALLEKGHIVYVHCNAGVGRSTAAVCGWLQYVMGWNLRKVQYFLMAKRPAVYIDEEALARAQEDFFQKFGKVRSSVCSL
Experimental: (§1) This experiment evaluated the selectivity of the disclosed compounds against tyrosine phosphatases, including SHP1, HePTP, Laforin, LMWPTP, LYP, PTP1B, PRL2, SSU72, VHR, FAP1, STEP, CDC14A, CD45, MEG2, and PP5, all expressed and purified from E. coli.
(§2) Phosphatase activity was measured using p-nitrophenyl phosphate (pNPP) (Fisher Scientific) as the substrate in 50 mM 3,3-dimethylglutaric acid buffer (pH 7.0, containing 1 mM EDTA), with ionic strength adjusted to 0.15 M with NaCl. […] After 10-60 minutes, the reaction was quenched by adding 20 µL of 5 N NaOH. Wells without enzyme were used as controls for correction. The amount of the product, p-nitrophenol, was determined by measuring the absorbance at 405 nm using a Spectra MAX340 microplate spectrophotometer (Molecular Devices), with a molar extinction coefficient of 18000 M^-1cm^-1.
(§3) Data were analyzed using GraphPad Prism software. Dose-response curves were obtained by fitting data using the nonlinear S-curve regression Dose-response-inhibition equation, and IC50 values were calculated.

SMILES	IC50
O=C(Nc1ccc(-c2oc3cc(F)c(-c4nnn[nH]4)cc3c2C2CCC2)cc1)C(=O)Nc1ccc(N2CCC3(CCOC3)CC2)cc1 [Example 125]	> 100 µM
O=C(Nc1ccc(-c2ccsc2)cc1)C(=O)Nc1ccc(-c2cc3cnc(-c4nnn[nH]4)nc3n2C2CCC2)cc1 [Example 131]	> 20 µM
Cn1cc(-c2ccc(NC(=O)C(=O)Nc3ccc(-c4cc5cc(F)c(-c6noc(=O)[nH]6)cc5n4C4CCC4)cc3)cc2)cn1 [Example 123]	> 100 µM
O=C(Nc1ccc(-c2cc3cc(F)c(-c4nnn[nH]4)cc3n2C2CCC2)cc1)C(=O)Nc1ccc(N2CCC3(CCOC3)CC2)cc1 [Example 67]	6.21 µM

same assay, conditions: selectivity ratio Laforin over SHP2

SMILES	IC50PTP/IC50SHP2 Laforin
O=C(Nc1ccc(-c2oc3cc(F)c(-c4nnn[nH]4)cc3c2C2CCC2)cc1)C(=O)Nc1ccc(N2CCC3(CCOC3)CC2)cc1 [Example 125]	1960.8
O=C(Nc1ccc(-c2ccsc2)cc1)C(=O)Nc1ccc(-c2cc3cnc(-c4nnn[nH]4)nc3n2C2CCC2)cc1 [Example 131]	769.2
Cn1cc(-c2ccc(NC(=O)C(=O)Nc3ccc(-c4cc5cc(F)c(-c6noc(=O)[nH]6)cc5n4C4CCC4)cc3)cc2)cn1 [Example 123]	709.2
O=C(Nc1ccc(-c2cc3cc(F)c(-c4nnn[nH]4)cc3n2C2CCC2)cc1)C(=O)Nc1ccc(N2CCC3(CCOC3)CC2)cc1 [Example 67]	182

biological target: T2, LYP (Homo sapiens, UniProt Q9Y2R2); experiment: Tyrosine phosphatase selectivity (pNPP substrate), LYP; assay type: biochemical; conditions: LYP, pNPP substrate
T2 construct: made in house; host or cells: E. coli
T2 sequence (Q9Y2R2 1-807): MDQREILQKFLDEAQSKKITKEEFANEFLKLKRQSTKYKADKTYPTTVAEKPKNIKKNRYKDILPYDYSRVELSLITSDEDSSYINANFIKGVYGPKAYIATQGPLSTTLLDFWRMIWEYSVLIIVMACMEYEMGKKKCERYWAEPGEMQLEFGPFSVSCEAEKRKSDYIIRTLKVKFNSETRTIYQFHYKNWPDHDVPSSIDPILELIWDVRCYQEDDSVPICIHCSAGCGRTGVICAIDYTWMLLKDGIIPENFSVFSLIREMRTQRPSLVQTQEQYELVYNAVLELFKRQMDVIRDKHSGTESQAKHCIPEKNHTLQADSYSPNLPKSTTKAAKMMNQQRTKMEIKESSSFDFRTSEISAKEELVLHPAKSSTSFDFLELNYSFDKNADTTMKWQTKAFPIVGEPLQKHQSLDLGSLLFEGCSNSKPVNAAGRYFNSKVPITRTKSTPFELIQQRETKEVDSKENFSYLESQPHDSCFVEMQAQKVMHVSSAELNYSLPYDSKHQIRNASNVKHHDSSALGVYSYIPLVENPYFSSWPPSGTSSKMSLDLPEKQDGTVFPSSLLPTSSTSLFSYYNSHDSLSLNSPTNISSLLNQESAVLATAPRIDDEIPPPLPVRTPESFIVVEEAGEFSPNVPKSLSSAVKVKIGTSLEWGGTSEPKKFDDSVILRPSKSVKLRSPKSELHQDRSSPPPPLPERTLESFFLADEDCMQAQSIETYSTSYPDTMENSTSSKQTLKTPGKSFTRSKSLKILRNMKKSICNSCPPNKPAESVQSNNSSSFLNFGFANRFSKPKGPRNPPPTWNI
Experimental: as §1, §2, §3

SMILES	IC50
O=C(Nc1ccc(-c2oc3cc(F)c(-c4nnn[nH]4)cc3c2C2CCC2)cc1)C(=O)Nc1ccc(N2CCC3(CCOC3)CC2)cc1 [Example 125]	2.5 µM
O=C(Nc1ccc(-c2ccsc2)cc1)C(=O)Nc1ccc(-c2cc3cnc(-c4nnn[nH]4)nc3n2C2CCC2)cc1 [Example 131]	0.5 µM
Cn1cc(-c2ccc(NC(=O)C(=O)Nc3ccc(-c4cc5cc(F)c(-c6noc(=O)[nH]6)cc5n4C4CCC4)cc3)cc2)cn1 [Example 123]	1.07 µM
O=C(Nc1ccc(-c2cc3cc(F)c(-c4nnn[nH]4)cc3n2C2CCC2)cc1)C(=O)Nc1ccc(N2CCC3(CCOC3)CC2)cc1 [Example 67]	0.076 µM

same assay, conditions: selectivity ratio LYP over SHP2

SMILES	IC50PTP/IC50SHP2 LYP
O=C(Nc1ccc(-c2oc3cc(F)c(-c4nnn[nH]4)cc3c2C2CCC2)cc1)C(=O)Nc1ccc(N2CCC3(CCOC3)CC2)cc1 [Example 125]	49.0
O=C(Nc1ccc(-c2ccsc2)cc1)C(=O)Nc1ccc(-c2cc3cnc(-c4nnn[nH]4)nc3n2C2CCC2)cc1 [Example 131]	19.2
Cn1cc(-c2ccc(NC(=O)C(=O)Nc3ccc(-c4cc5cc(F)c(-c6noc(=O)[nH]6)cc5n4C4CCC4)cc3)cc2)cn1 [Example 123]	7.6
O=C(Nc1ccc(-c2cc3cc(F)c(-c4nnn[nH]4)cc3n2C2CCC2)cc1)C(=O)Nc1ccc(N2CCC3(CCOC3)CC2)cc1 [Example 67]	2.2

biological target: T3, PTP1B (Homo sapiens, UniProt P18031); experiment: Tyrosine phosphatase selectivity (pNPP substrate), PTP1B; assay type: biochemical; conditions: PTP1B, pNPP substrate
T3 construct: made in house; host or cells: E. coli
T3 sequence (P18031 1-435): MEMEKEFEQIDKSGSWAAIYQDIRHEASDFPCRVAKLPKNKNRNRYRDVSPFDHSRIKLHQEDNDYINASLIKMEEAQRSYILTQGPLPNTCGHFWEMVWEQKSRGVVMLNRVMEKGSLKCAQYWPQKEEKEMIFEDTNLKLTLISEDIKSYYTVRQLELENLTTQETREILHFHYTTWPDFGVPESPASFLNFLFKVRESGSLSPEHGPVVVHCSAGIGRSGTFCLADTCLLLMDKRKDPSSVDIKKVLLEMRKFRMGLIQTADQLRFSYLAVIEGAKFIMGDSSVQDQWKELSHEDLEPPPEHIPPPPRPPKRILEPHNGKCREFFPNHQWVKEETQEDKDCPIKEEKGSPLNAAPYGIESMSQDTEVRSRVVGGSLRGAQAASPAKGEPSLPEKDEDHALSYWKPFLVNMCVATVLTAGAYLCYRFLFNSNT
Experimental: as §1, §2, §3

SMILES	IC50
O=C(Nc1ccc(-c2oc3cc(F)c(-c4nnn[nH]4)cc3c2C2CCC2)cc1)C(=O)Nc1ccc(N2CCC3(CCOC3)CC2)cc1 [Example 125]	6.28 µM
O=C(Nc1ccc(-c2ccsc2)cc1)C(=O)Nc1ccc(-c2cc3cnc(-c4nnn[nH]4)nc3n2C2CCC2)cc1 [Example 131]	4.7 µM
Cn1cc(-c2ccc(NC(=O)C(=O)Nc3ccc(-c4cc5cc(F)c(-c6noc(=O)[nH]6)cc5n4C4CCC4)cc3)cc2)cn1 [Example 123]	1.2 µM
O=C(Nc1ccc(-c2cc3cc(F)c(-c4nnn[nH]4)cc3n2C2CCC2)cc1)C(=O)Nc1ccc(N2CCC3(CCOC3)CC2)cc1 [Example 67]	0.39 µM

same assay, conditions: selectivity ratio PTP1B over SHP2

SMILES	IC50PTP/IC50SHP2 PTP1B
O=C(Nc1ccc(-c2oc3cc(F)c(-c4nnn[nH]4)cc3c2C2CCC2)cc1)C(=O)Nc1ccc(N2CCC3(CCOC3)CC2)cc1 [Example 125]	123.1
O=C(Nc1ccc(-c2ccsc2)cc1)C(=O)Nc1ccc(-c2cc3cnc(-c4nnn[nH]4)nc3n2C2CCC2)cc1 [Example 131]	180.8
Cn1cc(-c2ccc(NC(=O)C(=O)Nc3ccc(-c4cc5cc(F)c(-c6noc(=O)[nH]6)cc5n4C4CCC4)cc3)cc2)cn1 [Example 123]	8.5
O=C(Nc1ccc(-c2cc3cc(F)c(-c4nnn[nH]4)cc3n2C2CCC2)cc1)C(=O)Nc1ccc(N2CCC3(CCOC3)CC2)cc1 [Example 67]	11.4

biological target: T4, SSU72 (Homo sapiens, UniProt Q9NP77); experiment: Tyrosine phosphatase selectivity (pNPP substrate), SSU72; assay type: biochemical; conditions: SSU72, pNPP substrate
T4 construct: made in house; host or cells: E. coli
T4 sequence (Q9NP77 1-194): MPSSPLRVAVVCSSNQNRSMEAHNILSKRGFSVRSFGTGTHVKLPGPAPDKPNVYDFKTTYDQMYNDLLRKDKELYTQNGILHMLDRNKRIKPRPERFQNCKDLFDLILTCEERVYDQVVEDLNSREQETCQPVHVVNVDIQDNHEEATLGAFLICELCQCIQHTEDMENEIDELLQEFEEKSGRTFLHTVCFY
Experimental: as §1, §2, §3

SMILES	IC50
O=C(Nc1ccc(-c2oc3cc(F)c(-c4nnn[nH]4)cc3c2C2CCC2)cc1)C(=O)Nc1ccc(N2CCC3(CCOC3)CC2)cc1 [Example 125]	> 100 µM
O=C(Nc1ccc(-c2ccsc2)cc1)C(=O)Nc1ccc(-c2cc3cnc(-c4nnn[nH]4)nc3n2C2CCC2)cc1 [Example 131]	< 3 µM
Cn1cc(-c2ccc(NC(=O)C(=O)Nc3ccc(-c4cc5cc(F)c(-c6noc(=O)[nH]6)cc5n4C4CCC4)cc3)cc2)cn1 [Example 123]	> 100 µM
O=C(Nc1ccc(-c2cc3cc(F)c(-c4nnn[nH]4)cc3n2C2CCC2)cc1)C(=O)Nc1ccc(N2CCC3(CCOC3)CC2)cc1 [Example 67]	0.016 µM

same assay, conditions: selectivity ratio SSU72 over SHP2

SMILES	IC50PTP/IC50SHP2 SSU72
O=C(Nc1ccc(-c2oc3cc(F)c(-c4nnn[nH]4)cc3c2C2CCC2)cc1)C(=O)Nc1ccc(N2CCC3(CCOC3)CC2)cc1 [Example 125]	1960.8
O=C(Nc1ccc(-c2ccsc2)cc1)C(=O)Nc1ccc(-c2cc3cnc(-c4nnn[nH]4)nc3n2C2CCC2)cc1 [Example 131]	115.4
Cn1cc(-c2ccc(NC(=O)C(=O)Nc3ccc(-c4cc5cc(F)c(-c6noc(=O)[nH]6)cc5n4C4CCC4)cc3)cc2)cn1 [Example 123]	709.2
O=C(Nc1ccc(-c2cc3cc(F)c(-c4nnn[nH]4)cc3n2C2CCC2)cc1)C(=O)Nc1ccc(N2CCC3(CCOC3)CC2)cc1 [Example 67]	0.47

biological target: T5, STEP (Homo sapiens, UniProt P54829); experiment: Tyrosine phosphatase selectivity (pNPP substrate), STEP; assay type: biochemical; conditions: STEP, pNPP substrate
T5 construct: made in house; host or cells: E. coli
T5 sequence (P54829 1-565): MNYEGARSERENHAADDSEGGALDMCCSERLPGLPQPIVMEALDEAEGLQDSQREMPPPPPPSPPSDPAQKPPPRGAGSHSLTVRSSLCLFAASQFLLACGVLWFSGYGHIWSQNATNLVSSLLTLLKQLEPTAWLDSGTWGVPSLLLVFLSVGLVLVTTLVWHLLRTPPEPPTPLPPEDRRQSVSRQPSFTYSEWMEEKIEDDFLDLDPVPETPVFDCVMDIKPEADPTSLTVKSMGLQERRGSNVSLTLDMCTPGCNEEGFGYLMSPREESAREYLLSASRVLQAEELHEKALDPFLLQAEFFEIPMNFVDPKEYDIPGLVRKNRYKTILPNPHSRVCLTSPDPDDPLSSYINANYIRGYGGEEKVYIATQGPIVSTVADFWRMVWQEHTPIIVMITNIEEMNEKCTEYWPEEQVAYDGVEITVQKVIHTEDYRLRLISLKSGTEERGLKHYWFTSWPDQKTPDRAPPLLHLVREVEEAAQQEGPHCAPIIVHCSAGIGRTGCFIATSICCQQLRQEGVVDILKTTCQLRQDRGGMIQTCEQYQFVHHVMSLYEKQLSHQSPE
Experimental: as §1, §2, §3

SMILES	IC50
O=C(Nc1ccc(-c2oc3cc(F)c(-c4nnn[nH]4)cc3c2C2CCC2)cc1)C(=O)Nc1ccc(N2CCC3(CCOC3)CC2)cc1 [Example 125]	6.62 µM
O=C(Nc1ccc(-c2ccsc2)cc1)C(=O)Nc1ccc(-c2cc3cnc(-c4nnn[nH]4)nc3n2C2CCC2)cc1 [Example 131]	8.4 µM
Cn1cc(-c2ccc(NC(=O)C(=O)Nc3ccc(-c4cc5cc(F)c(-c6noc(=O)[nH]6)cc5n4C4CCC4)cc3)cc2)cn1 [Example 123]	15.5 µM
O=C(Nc1ccc(-c2cc3cc(F)c(-c4nnn[nH]4)cc3n2C2CCC2)cc1)C(=O)Nc1ccc(N2CCC3(CCOC3)CC2)cc1 [Example 67]	6.94 µM

same assay, conditions: selectivity ratio STEP over SHP2

SMILES	IC50PTP/IC50SHP2 STEP
O=C(Nc1ccc(-c2oc3cc(F)c(-c4nnn[nH]4)cc3c2C2CCC2)cc1)C(=O)Nc1ccc(N2CCC3(CCOC3)CC2)cc1 [Example 125]	129.8
O=C(Nc1ccc(-c2ccsc2)cc1)C(=O)Nc1ccc(-c2cc3cnc(-c4nnn[nH]4)nc3n2C2CCC2)cc1 [Example 131]	323.1
Cn1cc(-c2ccc(NC(=O)C(=O)Nc3ccc(-c4cc5cc(F)c(-c6noc(=O)[nH]6)cc5n4C4CCC4)cc3)cc2)cn1 [Example 123]	109.9
O=C(Nc1ccc(-c2cc3cc(F)c(-c4nnn[nH]4)cc3n2C2CCC2)cc1)C(=O)Nc1ccc(N2CCC3(CCOC3)CC2)cc1 [Example 67]	204.1
